Reference: ChEMBL document CHEMBL3352739, “Comparative in vivo evaluation of polyalkoxy substituted 4H-chromenes and oxa-podophyllotoxins as microtubule destabilizing agents in the phenotypic sea urchin embryo assay” (2014)

Legend:
[1] = system: Paracentrotus lividus; assay: Antimitotic microtubule destabilizing activity in Paracentrotus lividus L embryos assessed as induction of cleavage alteration
[2] = system: Paracentrotus lividus; assay: Antimitotic microtubule destabilizing activity in Paracentrotus lividus L embryos assessed as induction of embryo spinning
[3] = system: Paracentrotus lividus; assay: Antimitotic microtubule destabilizing activity in Paracentrotus lividus L embryos assessed as induction of cleavage arrest
[4] = Cytotoxicity against human NCI60 cells; type: functional
[5] = system: SW-620; assay: Growth inhibition of human SW620 cells after 48 hrs by sulforhodamine B assay; type: functional; settings: SW-620, 48 h
[6] = system: M14; assay: Growth inhibition of human M14 cells after 48 hrs by sulforhodamine B assay; type: functional; settings: M14, 48 h
[7] = system: NCI-H460; assay: Growth inhibition of human NCI-H460 cells after 48 hrs by sulforhodamine B assay; type: functional; settings: NCI-H460, 48 h
[8] = system: MDA-MB-435; assay: Growth inhibition of human MDA-MB-435 cells after 48 hrs by sulforhodamine B assay; type: functional; settings: MDA-MB-435, 48 h
[9] = Growth inhibition of human RXF393 cells after 48 hrs by sulforhodamine B assay; type: functional; settings: RXF 393, 48 h
[10] = system: MDA-MB-468; assay: Growth inhibition of human MDA-MB-468 cells after 48 hrs by sulforhodamine B assay; type: functional; settings: MDA-MB-468, 48 h
[11] = system: TK-10; assay: Growth inhibition of human TK10 cells after 48 hrs by sulforhodamine B assay; type: functional; settings: TK-10, 48 h
[12] = Growth inhibition of human OVCAR8 cells after 48 hrs by sulforhodamine B assay; type: functional; settings: OVCAR-8, 48 h
[13] = Growth inhibition of human COLO205 cells after 48 hrs by sulforhodamine B assay; type: functional; settings: COLO 205, 48 h
[14] = system: CCRF-CEM; assay: Growth inhibition of human CCRF-CEM cells after 48 hrs by sulforhodamine B assay; type: functional
[15] = Growth inhibition of human PC3 cells after 48 hrs by sulforhodamine B assay; type: functional; settings: PC-3, 48 h
[16] = system: NCI-H226; assay: Growth inhibition of human NCI-H226 cells after 48 hrs by sulforhodamine B assay; type: functional; settings: NCI-H226, 48 h
[17] = Growth inhibition of human H1299 cells after 48 hrs by sulforhodamine B assay; type: functional; settings: NCI-H1299, 48 h
[18] = system: SK-OV-3; assay: Growth inhibition of human SKOV3 cells after 48 hrs by sulforhodamine B assay; type: functional; settings: SK-OV-3, 48 h
[19] = system: A549; assay: Growth inhibition of human A549/ATCC cells after 48 hrs by sulforhodamine B assay; type: functional; settings: A549, 48 h
[20] = system: SF-268; assay: Growth inhibition of human SF268 cells after 48 hrs by sulforhodamine B assay; type: functional; settings: SF-268, 48 h
[21] = system: NCI-H23; assay: Growth inhibition of human NCI-H23 cells after 48 hrs by sulforhodamine B assay; type: functional; settings: NCI-H23, 48 h
[22] = system: SR; assay: Growth inhibition of human SR cells after 48 hrs by sulforhodamine B assay; type: functional
[23] = Growth inhibition of human HCT116 cells after 48 hrs by sulforhodamine B assay; type: functional; settings: HCT-116, 48 h
[24] = Growth inhibition of human OVCAR4 cells after 48 hrs by sulforhodamine B assay; type: functional; settings: OVCAR-4, 48 h
[25] = system: CAKI-1; assay: Growth inhibition of human CAKI-1 cells after 48 hrs by sulforhodamine B assay; type: functional; settings: CAKI-1, 48 h
[26] = system: SNB-19; assay: Growth inhibition of human SNB19 cells after 48 hrs by sulforhodamine B assay; type: functional; settings: SNB-19, 48 h
[27] = system: KM12; assay: Growth inhibition of human KM12 cells after 48 hrs by sulforhodamine B assay; type: functional; settings: KM12, 48 h
[28] = system: ACHN; assay: Growth inhibition of human ACHN cells after 48 hrs by sulforhodamine B assay; type: functional
[29] = system: NCI-H322M; assay: Growth inhibition of human NCI-H322M cells after 48 hrs by sulforhodamine B assay; type: functional
[30] = Growth inhibition of human OVCAR5 cells after 48 hrs by sulforhodamine B assay; type: functional; settings: OVCAR-5, 48 h
[31] = Growth inhibition of human UO31 cells after 48 hrs by sulforhodamine B assay; type: functional; settings: UO-31, 48 h
[32] = Growth inhibition of human HCT15 cells after 48 hrs by sulforhodamine B assay; type: functional; settings: HCT-15, 48 h
[33] = system: NCI-H522; assay: Growth inhibition of human NCI-H522 cells after 48 hrs by sulforhodamine B assay; type: functional; settings: NCI-H522, 48 h
[34] = Growth inhibition of human SF295 cells after 48 hrs by sulforhodamine B assay; type: functional; settings: SF-295, 48 h
[35] = system: SK-MEL-5; assay: Growth inhibition of human SK-MEL-5 cells after 48 hrs by sulforhodamine B assay; type: functional; settings: SK-MEL-5, 48 h
[36] = system: MDA-MB-231; assay: Growth inhibition of human MDA-MB-231 cells after 48 hrs by sulforhodamine B assay; type: functional; settings: MDA-MB-231, 48 h
[37] = Growth inhibition of human OVCAR3 cells after 48 hrs by sulforhodamine B assay; type: functional; settings: OVCAR-3, 48 h
[38] = Growth inhibition of human HCC2998 cells after 48 hrs by sulforhodamine B assay; type: functional; settings: HCC 2998, 48 h
[39] = Growth inhibition of human BT549 cells after 48 hrs by sulforhodamine B assay; type: functional; settings: BT-549, 48 h
[40] = system: SNB-75; assay: Growth inhibition of human SNB75 cells after 48 hrs by sulforhodamine B assay; type: functional; settings: SNB-75, 48 h
[41] = system: SN12C; assay: Growth inhibition of human SN12C cells after 48 hrs by sulforhodamine B assay; type: functional
[42] = system: DU-145; assay: Growth inhibition of human DU145 cells after 48 hrs by sulforhodamine B assay; type: functional; settings: DU-145, 48 h
[43] = system: K562; assay: Growth inhibition of human K562 cells after 48 hrs by sulforhodamine B assay; type: functional; settings: K562, 48 h
[44] = system: T47D; assay: Growth inhibition of human T47D cells after 48 hrs by sulforhodamine B assay; type: functional
[45] = system: HT-29; assay: Growth inhibition of human HT-29 cells after 48 hrs by sulforhodamine B assay; type: functional; settings: HT-29, 48 h
[46] = system: IGROV-1; assay: Growth inhibition of human IGROV1 cells after 48 hrs by sulforhodamine B assay; type: functional; settings: IGROV-1, 48 h
[47] = Growth inhibition of human UACC62 cells after 48 hrs by sulforhodamine B assay; type: functional; settings: UACC-62, 48 h
[48] = system: A498; assay: Growth inhibition of human A498 cells after 48 hrs by sulforhodamine B assay; type: functional; settings: A498, 48 h
[49] = Growth inhibition of human MOLT4 cells after 48 hrs by sulforhodamine B assay; type: functional; settings: MOLT-4, 48 h
[50] = system: HL-60(TB); assay: Growth inhibition of human HL-60(TB) cells after 48 hrs by sulforhodamine B assay; type: functional; settings: HL-60, 48 h
[51] = Growth inhibition of human RPMI8226 cells after 48 hrs by sulforhodamine B assay; type: functional; settings: RPMI-8226, 48 h
[52] = system: MCF7; assay: Growth inhibition of human MCF7 cells after 48 hrs by sulforhodamine B assay; type: functional; settings: MCF7, 48 h
[53] = Growth inhibition of human SF539 cells after 48 hrs by sulforhodamine B assay; type: functional; settings: SF-539, 48 h
[54] = system: HOP-62; assay: Growth inhibition of human HOP62 cells after 48 hrs by sulforhodamine B assay; type: functional; settings: HOP-62, 48 h
[55] = Growth inhibition of human Hs 578T cells after 48 hrs by sulforhodamine B assay; type: functional
[56] = Growth inhibition of human UACC257 cells after 48 hrs by sulforhodamine B assay; type: functional; settings: UACC-257, 48 h
[57] = Growth inhibition of human NCI-ADR-RES cells after 48 hrs by sulforhodamine B assay; type: functional
[58] = system: 786-0; assay: Growth inhibition of human 786-0 cells after 48 hrs by sulforhodamine B assay; type: functional; settings: 786-0, 48 h
[59] = Cytotoxicity against human NCI60 cells assessed as mean cell growth at 10 uM; type: functional

COc1ccc(C2C(C#N)=C(N)Oc3cc(O)ccc32)c(OC)c1 (stereo not drawn)
EC [1]: > 4 µM
EC [2]: > 4 µM
EC [3]: > 4 µM

COc1ccc2c(c1)OC(N)=C(C#N)C2c1ccc(OC)c(OC)c1 (stereo not drawn)
EC [1]: 0.05 µM
EC [2]: 1 µM
EC [3]: 0.2 µM

COc1ccc2c(c1)OC(N)=C(C#N)C2c1cccc(OC)c1OC (stereo not drawn)
EC [1]: 0.2 µM
EC [2]: 4 µM
EC [3]: 2 µM

COc1cc([C@@H]2c3cc4c(cc3[C@H](O)[C@H]3COC(=O)[C@H]23)OCO4)cc(OC)c1OC [PODOFILOX]
EC [1]: 0.02 µM
GI50 [4]: 21 nM
EC [2]: 0.5 µM
EC [3]: 0.05 µM

COc1ccc2c(c1)OC(N)=C(C#N)C2c1cc(OC)c2c(c1)OCCO2 (stereo not drawn)
EC [1]: 0.005 µM
EC [2]: 0.1 µM
EC [3]: 0.02 µM

COc1ccc2c(c1)OC(N)=C(C#N)C2c1cc2c(c([N+](=O)[O-])c1)OCCO2 (stereo not drawn)
EC [1]: 0.02 µM
EC [2]: 1 µM
EC [3]: 0.1 µM

COc1ccc2c(c1)OC(N)=C(C#N)[C@@H]2c1cc(OC)c(OC)c(OC)c1
EC [1]: 0.005 µM
EC [2]: 0.2 µM
EC [3]: 0.04 µM

COc1cccc(C2C(C#N)=C(N)Oc3cc(O)ccc32)c1OC (stereo not drawn)
EC [1]: > 4 µM
EC [2]: > 4 µM
EC [3]: > 4 µM

N#CC1=C(N)Oc2cc(O)ccc2C1c1ccccc1F (stereo not drawn)
EC [1]: 1 µM
EC [2]: > 5 µM
EC [3]: 4 µM

COc1cccc([C@H]2C(C#N)=C(N)Oc3cc(OC)ccc32)c1
EC [1]: 0.001 µM
EC [2]: 0.05 µM
EC [3]: 0.01 µM

COc1cccc(C2C(C#N)=C(N)Oc3cc(OC)ccc32)c1 (stereo not drawn)
GI50 [5]: 38.1 nM
GI50 [6]: 26.8 nM
GI50 [7]: 36.4 nM
GI50 [8]: < 10 nM
GI50 [9]: 26 nM
GI50 [10]: 35 nM
GI50 [11]: 11800 nM
GI50 [12]: 51.4 nM
GI50 [13]: 45.2 nM
GI50 [14]: 31.2 nM
GI50 [15]: 35.7 nM
GI50 [16]: 835 nM
GI50 [17]: 55 nM
GI50 [18]: 34 nM
GI50 [19]: 45.2 nM
GI50 [20]: 73.5 nM
GI50 [21]: 40 nM
GI50 [22]: 20.2 nM
GI50 [23]: 47.9 nM
GI50 [24]: 535 nM
GI50 [25]: 42.6 nM
GI50 [26]: 3770 nM
GI50 [27]: 30.3 nM
GI50 [28]: 120 nM
GI50 [29]: 63.1 nM
GI50 [30]: 66.2 nM
EC [1]: 0.002 µM
GI50 [4]: 55 nM
GI50 [31]: 57.2 nM
GI50 [32]: 36.6 nM
GI50 [33]: < 10 nM
GI50 [34]: 25.4 nM
GI50 [35]: 50.3 nM
GI50 [36]: 54.6 nM
GI50 [37]: 27.8 nM
GI50 [38]: 51.5 nM
GI50 [39]: 87.2 nM
GI50 [40]: 27 nM
GI50 [41]: 69.3 nM
EC [2]: 0.05 µM
GI50 [42]: 35.1 nM
GI50 [43]: 19.7 nM
GI50 [44]: 43.7 nM
GI50 [45]: 37 nM
GI50 [46]: 48.2 nM
GI50 [47]: 70.5 nM
GI50 [48]: 18.6 nM
GI50 [49]: 55.7 nM
GI50 [50]: 25 nM
GI50 [51]: 37.4 nM
GI50 [52]: 17.1 nM
GI50 [53]: 25 nM
GI50 [54]: 41.6 nM
GI50 [55]: 28.3 nM
EC [3]: 0.01 µM
GI50 [56]: 12400 nM
GI50 [57]: 14.9 nM
GI50 [58]: 50.7 nM

COc1cc(C2C(C#N)=C(N)Oc3cc(O)ccc32)cc2c1OCO2 (stereo not drawn)
EC [1]: 0.5 µM
EC [2]: 10 µM
EC [3]: 4 µM

COc1ccc(C2C(C#N)=C(N)Oc3cc(O)ccc32)c(OC)c1OC (stereo not drawn)
EC [1]: > 4 µM
EC [2]: > 4 µM
EC [3]: > 4 µM

COc1ccc(C2C(C#N)=C(N)Oc3cc(O)ccc32)cc1OC (stereo not drawn)
Activity [59]: 99.4%
EC [1]: > 4 µM
EC [2]: > 4 µM
EC [3]: > 4 µM

N#CC1=C(N)Oc2cc(O)ccc2C1c1ccccc1 (stereo not drawn)
EC [1]: 0.5 µM
EC [2]: > 5 µM
EC [3]: 2 µM

COc1ccccc1C1C(C#N)=C(N)Oc2cc(O)ccc21 (stereo not drawn)
EC [1]: 0.5 µM
EC [2]: > 5 µM
EC [3]: > 4 µM

COc1ccc2c(c1)OC(N)=C(C#N)C2c1cc(N)c2c(c1)OCCO2 (stereo not drawn)
EC [1]: 0.1 µM
EC [2]: 5 µM
EC [3]: 0.5 µM
